Source: ChEMBL document CHEMBL5360547 (Eur J Med Chem, 2023)
The source made the active and inactive calls. The calls are words filed in the database; no cut-off is given here.

What was measured:
SH-SY5Y [1] = assay: Neuroprotective activity against oxygen glucose deprivation induced ischemic stroke model in human SH-SY5Y cells assessed as cell viability at 20 uM incubated for 24 hrs by CCK-8 assay; type: functional; details: read-out: Activity
SH-SY5Y [2] = assay: Neuroprotective activity against oxygen glucose deprivation induced ischemic stroke model in human SH-SY5Y cells assessed as cell viability at 2 uM incubated for 24 hrs by CCK-8 assay; type: functional; details: read-out: Activity
[3] = Toxicity in middle cerebral artery occlusion-induced brain infarction C57BL/6 mouse model assessed as survival rate at 10 mg/kg, ip and measured after 24 hrs; type: organism-based; details: in vivo
in vivo = details: C57BL/6, mouse, ip, 20 mg/kg
Cortical neurone [4] = assay: Cytotoxicity against primary C57BL/6J E14-17 mouse Cortical neuron assessed as decrease in cell viability upto 50 uM incubated for 24 hrs by CCK-8 assay; type: toxicity, cell-based
Mus musculus [5] = assay: Neuroprotective activity against middle cerebral artery occlusion-induced brain infarction C57BL/6 mouse model assessed as decrease in neurological deficit score at 10 mg/kg, ip and measured after 24 hrs by animal behavioral study relative to control; type: functional
Mus musculus [6] = assay: Neuroprotective activity against middle cerebral artery occlusion-induced brain infarction C57BL/6 mouse model assessed as reduction in cerebral infarct volume at 20 mg/kg, ip and measured after 24 hrs by TTC staining based assay; type: functional, organism-based
Cortical neurone [7] = assay: Neuroprotective activity against oxygen glucose deprivation induced ischemic stroke model in primary C57BL/6J E14-17 mouse Cortical neurons assessed as increase in cell viability at 0.5 to 20 uM incubated for 24 hrs by CCK-8 assay; type: functional, cell-based; details: dose 0.5-20 µM
Cortical neurone [8] = assay: Neuroprotective activity against oxygen glucose deprivation induced ischemic stroke model in primary C57BL/6J E14-17 mouse Cortical neurons assessed as increase in cell viability at 0.1 to 20 uM incubated for 24 hrs by CCK-8 assay; type: functional, cell-based; details: dose 0.1-20 µM
Cortical neurone [9] = assay: Cytotoxicity against primary C57BL/6J E14-17 mouse Cortical neuron assessed as decrease in cell viability at 0.1 to 20 uM incubated for 24 hrs by CCK-8 assay; type: toxicity, cell-based; details: dose 0.1-20 µM
Cortical neurone [10] = assay: Neuroprotective activity against oxygen glucose deprivation induced ischemic stroke model in primary C57BL/6J E14-17 mouse Cortical neurons assessed as increase in cell viability at 10 uM incubated for 24 hrs by CCK-8 assay (Rvb= 57.43 +/- 2.54 %); type: functional; details: 24 h, 10 µM
Cortical neurone [11] = assay: Cytotoxicity against primary C57BL/6J E14-17 mouse Cortical neuron assessed as decrease in cell viability at 1 uM incubated for 24 hrs by CCK-8 assay relative to control; type: toxicity, cell-based
Cortical neurone [12] = assay: Neuroprotective activity against oxygen glucose deprivation induced ischemic stroke model in primary C57BL/6J E14-17 mouse Cortical neurons assessed as increase in cell viability at 1 uM incubated for 24 hrs by CCK-8 assay (Rvb= 57.43 +/- 2.54 %); type: functional; details: 24 h, 1 µM
Cortical neurone [13] = assay: Cytotoxicity against primary C57BL/6J E14-17 mouse Cortical neuron assessed as decrease in cell viability at 0.1 to 5 uM incubated for 24 hrs by CCK-8 assay; type: toxicity, cell-based; details: dose 0.1-5 µM
Cortical neurone [14] = assay: Cytotoxicity against primary C57BL/6J E14-17 mouse Cortical neuron assessed as decrease in cell viability at 10 to 20 uM incubated for 24 hrs by CCK-8 assay; type: toxicity, cell-based; details: dose 10-20 µM
Cortical neurone [15] = assay: Neuroprotective activity against oxygen glucose deprivation induced ischemic stroke model in primary C57BL/6J E14-17 mouse Cortical neurons assessed as increase in cell viability at 5 uM incubated for 24 hrs by CCK-8 assay (Rvb= 57.43 +/- 2.54 %); type: functional
Cortical neurone [16] = assay: Cytotoxicity against primary C57BL/6J E14-17 mouse Cortical neuron assessed as decrease in cell viability at 10 uM incubated for 24 hrs by CCK-8 assay relative to control; type: toxicity, cell-based

## O=C(/C=C/c1ccc(O)c2c1[C@H](C(=O)O[C@H](Cc1ccc(O)c(O)c1)C(=O)O)[C@@H](c1ccc(O)c(O)c1)O2)O[C@H](Cc1ccc(O)c(O)c1)C(=O)O
SH-SY5Y [1]
  viability at 20 µM: 78.1%
SH-SY5Y [2]
  viability at 2 µM: 73.4%

## CCCCCCCCN(C)[C@H]1CC[C@@H](c2ccc(Cl)c(Cl)c2)c2ccccc21 [listing 1 of 2 here]
[3]
  survival at 24 h: 100%
In vivo
  mortality at 24 h: 35.7%
Cortical neurone [4]
  Activity: Non-Toxic
Mus musculus [5]
  Activity: 1.5

## CCCCCCCCN(C)[C@H]1CC[C@@H](c2ccc(Cl)c(Cl)c2)c2ccccc21 [listing 2 of 2 here]
Mus musculus [6]
  Activity: Active
Cortical neurone [7]
  Activity: Active

## NCCc1c[nH]c2ccc(O)cc12 [SEROTONIN]
Cortical neurone [8]
  Activity: inactive
Cortical neurone [9]
  Activity: Non-Toxic

## CN[C@H]1CC[C@@H](c2ccc(Cl)c(Cl)c2)c2ccccc21 [SERTRALINE]
Cortical neurone [10]
  Activity: 58.85%
Cortical neurone [11]
  Activity: 99.08%
Cortical neurone [12]
  Activity: 67.21%
Cortical neurone [13]
  Activity: Non-Toxic
Cortical neurone [14]
  Activity: Toxic
SH-SY5Y [1]
  viability at 20 µM: 30.5%
Cortical neurone [15]
  Activity: 65.9%
Cortical neurone [16]
  Activity: 94.25%
Cortical neurone [4]
  Activity: Non-Toxic
SH-SY5Y [2]
  viability at 2 µM: 81.9%
